ChEMBL document CHEMBL1134433, “Discovery of a novel CCR3 selective antagonist” (Bioorg Med Chem Lett, 2001)

What was measured:
Format in all cases: cell-based
[1] = biological target: T1, C-C chemokine receptor type 3 (Homo sapiens) (UniProt P51677); experiment: Percent inhibition of [125I]eotaxin binding to human CCR3 receptor expressed in CHO cells at 1 uM
T1 sequence (whole entry): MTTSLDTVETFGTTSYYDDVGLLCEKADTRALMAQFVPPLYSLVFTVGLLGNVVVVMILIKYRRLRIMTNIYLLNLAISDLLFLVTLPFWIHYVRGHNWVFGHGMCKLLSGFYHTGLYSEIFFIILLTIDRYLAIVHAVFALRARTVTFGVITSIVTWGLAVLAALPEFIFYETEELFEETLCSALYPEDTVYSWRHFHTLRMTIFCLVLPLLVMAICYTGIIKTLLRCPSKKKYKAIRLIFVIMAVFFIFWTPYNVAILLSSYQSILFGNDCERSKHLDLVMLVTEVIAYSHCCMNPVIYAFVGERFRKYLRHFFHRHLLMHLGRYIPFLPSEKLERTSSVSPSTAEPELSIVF

[2] = biological target: T2, C-C chemokine receptor type 1 (Homo sapiens, UniProt P32246); experiment: Concentration required for 50% inhibition of [125I]eotaxin binding to human CCR1 receptor expressed in CHO cells
T2 sequence (P32246 whole entry): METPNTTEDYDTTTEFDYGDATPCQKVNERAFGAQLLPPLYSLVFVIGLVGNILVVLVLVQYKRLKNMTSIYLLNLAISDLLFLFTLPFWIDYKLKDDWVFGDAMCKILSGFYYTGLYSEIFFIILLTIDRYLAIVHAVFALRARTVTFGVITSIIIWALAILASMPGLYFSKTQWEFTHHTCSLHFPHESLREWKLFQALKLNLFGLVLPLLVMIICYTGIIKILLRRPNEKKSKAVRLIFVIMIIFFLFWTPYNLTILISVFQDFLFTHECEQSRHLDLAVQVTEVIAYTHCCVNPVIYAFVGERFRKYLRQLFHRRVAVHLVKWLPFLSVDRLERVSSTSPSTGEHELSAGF

[3] = biological target: T3, C-C chemokine receptor type 3 (Homo sapiens, UniProt P51677); experiment: Concentration required for 50% inhibition of [125I]eotaxin binding to human CCR3 receptor expressed in CHO cells
T3 sequence (P51677 whole entry): T1 sequence (whole entry)

| Structure (SMILES) | inhibition [1] [%] | IC50 [2] [nM] | IC50 [3] [nM] |
| --- | --- | --- | --- |
| O=C(CSc1nc2ccccc2s1)NCC1CCCN(Cc2nccs2)C1 (stereo not given) | 0 |  |  |
| CCCN1CCCC(CNC(=O)CSc2nc3ccccc3s2)C1 (stereo not given) | 30 |  |  |
| O=C(CSc1nc2ccccc2s1)NCC1CCCN(Cc2cccc3ccccc23)C1 (stereo not given) | 15 |  |  |
| O=C(CSc1nc2ccccc2s1)NCC1CCCN(Cc2cccnc2)C1 (stereo not given) | 0 |  |  |
| CCCCCN1CCCC(CNC(=O)CSc2nc3ccccc3s2)C1 (stereo not given) | 0 |  |  |
| O=C(CSc1nc2ccccc2s1)NCC1CCCN(CCc2ccccc2)C1 (stereo not given) | 0 |  |  |
| O=C(CSc1nc2ccccc2s1)NCC1CCCN(CC2CCCCC2)C1 (stereo not given) |  |  | 1000 |

Other lines, results leading:

| inhibition [1] [%] | IC50 [2] [nM] | IC50 [3] [nM] | Structure (SMILES) |
| --- | --- | --- | --- |
|  | 450 | 32 | O=C(CSc1nc2ccccc2s1)NC1CCN(Cc2ccc(Cl)c(Cl)c2)CC1 |
|  | 3600 | 20 | CCOc1ccc2nc(SCC(=O)NC3CCN(Cc4ccc(Cl)c(Cl)c4)CC3)sc2c1 |
| 0 |  |  | O=C(CSc1nc2ccccc2s1)NCC1CCCN(Cc2ccncc2)C1 (stereo not given) |
|  | 1900 | 2.3 | Nc1ccc2nc(SCC(=O)NC3CCN(Cc4ccc(Cl)c(Cl)c4)CC3)sc2c1 |
| 5 |  |  | O=C(CSc1nc2ccccc2s1)NCC1CCCN(Cc2ccc3ccccc3c2)C1 (stereo not given) |
|  | > 10000 | 48 | CCOC(=O)c1ccc2nc(SCC(=O)NC3CCN(Cc4ccc(Cl)c(Cl)c4)CC3)sc2c1 |
|  | 260 | 79 | O=C(CSc1nc2ccccc2s1)NC1CCN(Cc2ccc(Cl)cc2)CC1 |
|  | 4200 | 1000 | O=C(CSc1nc2ccccc2s1)NCC1CCCN(Cc2ccccc2)C1 (stereo not given) |
|  | > 10000 | 280 | O=C(CSc1nc2ccccc2s1)NC1CCN(Cc2cccc(Cl)c2)CC1 |
|  | 7100 | 750 | O=C(CSc1nc2ccccc2s1)NC1CCN(Cc2ccccc2)CC1 |
